Here are results for 30 compounds from PubChem BioAssay (NCI).

Test in all cases: growth of human tumour cells (NCI), 48 h
The test system of assay [1] is BT-549 breast.
Assay [2] has as its system CCRF-CEM leukemia.
Assay [3] concerns MDA-MB-231 breast.
For assay [4], the system named is MDA-N.
The test system of assay [5] is NCI-H522 lung.
Assay [6] has as its system NCI/ADR-RES ovarian.
Assay [7] relates to OVCAR-8 ovarian.
In assay [8] the test system is SF-539 CNS.
Assay [9] has as its system HOP-92 NSCLC.
In assay [10] the test system is HT29 colon.

“And” between values parts separate entries of the source, which are not always exact repeats. Equal entries are not always repeated.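 Where inhibition never reached the appropriate level, the endpoint shown equals the highest concentration tested. Otherwise, values were interpolated linearly from a five-concentration, 48-hour dose response in 96-well plates. Here, GI50 denotes the concentration required for 50% inhibition of growth. TGI: concentration producing complete growth inhibition.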 Where a SMILES comes first, the peptide text is derived from it. [ ]: non-standard residue; d: D form. A value given as a limit tells only on which side of the number the result lay.

As to `COP(=O)(CP(=O)(OC)OCCC(C)CCC=C(C)C)OC` (stereo not given), the TGI in assay [1] is above 100 µM; in [2], above 100 µM; in assay [3], 44.7 µM; in [4], above 100 µM; in [5], above 100 µM; in assay [6] it was above 100 µM. In addition, the TGI in assay [7] and in assay [8] was above 100 µM each time.
Consider `O=S(=O)(O)c1cc(S(=O)(=O)O)c2cc(N=Nc3ccc(N=Nc4ccc(/C=C/c5ccc(N=[N+]([O-])c6ccc(/C=C/c7ccc(N=Nc8ccc(N=Nc9ccc%10cc(S(=O)(=O)O)cc(S(=O)(=O)O)c%10c9)cc8)cc7S(=O)(=O)O)c(S(=O)(=O)O)c6)cc5S(=O)(=O)O)c(S(=O)(=O)O)c4)cc3)ccc2c1`, for which the TGI in [2] is above 100 µM; in [9], 98.9 µM; in assay [10], above 100 µM; in [5] it was above 100 µM; in [6], above 100 µM; in assay [7] it was above 100 µM. This compound also had a TGI in assay [8] above 100 µM.
As for `N#CC1=C(O)NC(O)=C(C#N)C1c1c(Cl)cccc1Cl`, the TGI in [2] is above 100 µM; in [9], 43.9 µM; in assay [10], above 100 µM; in assay [5] it was above 100 µM; in assay [7], 45 µM; in assay [8], 41.3 µM.
Turning to `C=CC(=O)N1C/C(=C\c2ccc(OC)cc2)C(=O)/C(=C/c2ccc(OC)cc2)C1`, the TGI in [1] is 6.24 µM; in assay [2], above 25.7 µM; in [9], 27 µM; in assay [10], 2.88 µM; in [3] it was 7.98 µM; in [6], above 31 µM. Further, the TGI in assay [7] was above 24.2 µM; in assay [8] it was 3.53 µM.
As to `COc1ccc(NC(=O)CSC(=O)c2ccccc2)c(SCCSSCCSc2cc(OC)ccc2NC(=O)CSC(=O)c2ccccc2)c1`, the TGI in assay [1], in assay [2], in assay [9], in assay [10], in [4] and in [5] was above 100 µM throughout. Besides, the TGI in [6], in [7] and in assay [8] was above 100 µM in each case.
As to `N#Cc1ccc(-c2ccc(Cl)cc2)n(C2OC(CO)C(O)C(O)C2O)c1=S` (stereo not given), the GI50 was > 100 µM and 24.9 µM in assay [1]; above 100 µM in [2]; > 100 µM and 14.6 µM in assay [9]; > 100 µM and 15.5 µM in assay [5]. Further, the TGI was above 100 µM in [1]; above 100 µM in assay [2]; > 100 µM and 51.5 µM in assay [9]; above 100 µM in assay [10]; above 100 µM in [3]; above 100 µM in assay [4]. Further, the TGI in assay [5], in assay [7] and in [8] was above 100 µM in each case.
Consider `COC(=O)/C=C1\C(CO[Si](C)(C)C(C)(C)C)OC(n2cc(C)c(=O)n(C)c2=O)C1O[Si](C)(C)C(C)(C)C` (stereo not given), for which the TGI in [2], in assay [9], in assay [10], in assay [3], in assay [4] and in [5] was above 100 µM throughout. The TGI in assay [6] and in [7] was above 100 µM each time.
For `CC(=O)/C=C(/C)[O-].CC(=O)/C=C(/C)[O-].CC(=O)[CH-]C(C)=O.CC(=O)[CH-]C(C)=O.[Zr+4]`, the GI50 in [2], in assay [10], in assay [5] and in [8] was above 100 µM throughout. Besides, the TGI in assay [2], in assay [10], in assay [5] and in assay [8] was above 100 µM throughout.
In the case of `N=C(N)SCc1nc(-c2ccc(Cl)cc2)no1`, the TGI in assay [1] came out at 50.6 µM; in [2], 31.8 µM; in assay [9] it was 77.6 µM; in [10], 29.3 µM; in assay [3], 35.9 µM; in assay [5], 25.1 µM. Also, the TGI in assay [6] is above 100 µM; in assay [7], above 100 µM; in assay [8] it was 41.4 µM.
Turning to `N#CCCN(CCCCN(CCC#N)C(=O)Nc1ccccc1)C(=O)Nc1ccccc1`, the TGI in assay [1], in [10], in assay [3], in assay [4], in assay [5] and in assay [6] was above 100 µM each time. The TGI in [7] was above 100 µM.
`COc1cc2nc(-c3cccs3)nc(Nc3ccccc3C(=O)NN)c2cc1OC`: the TGI in assay [1], in assay [2], in assay [9], in assay [10], in assay [3] and in assay [5] was above 100 µM in each case. Further, the TGI in [6], in assay [7] and in assay [8] was above 100 µM throughout.
Take `O=c1c2cccnc2oc2c(Cl)cc(-c3nn[nH]n3)cc12`: the TGI in assay [2], in assay [9], in [10], in [3], in assay [4] and in assay [6] was above 100 µM throughout. The TGI in assay [7] and in assay [8] was above 100 µM each time.
Take `CC(C)C[C@H](NC(=O)[C@H](CC(C)C)NC(=O)[C@@H](Cc1c[nH]c2ccccc12)NC(=O)[C@H](Cc1ccccc1)NC(=O)[C@@H](Cc1c[nH]c2ccccc12)NC(=O)[C@H](CCC(N)=O)NC(=O)[C@@H](CCC(N)=O)NC(=O)[C@@H]1CCCN1C(=O)[C@@H](CCCCN)NC(=O)[C@H]1CCCN1C(=O)[C@H](N)CCCN=C(N)N)C(N)=O` (H-[dR][dP][dK]P[dQ]Q[dW]F[dW]LL-NH2): the TGI in [2], in assay [9], in [10], in [5], in assay [6] and in assay [7] was above 100 µM in each case. In addition, the TGI in assay [8] is above 100 µM.
Consider `O=C1C(Cl)N(c2ccc([N+](=O)[O-])cc2)C1c1c[nH]c2ccccc12` (stereo not given), for which the TGI in [2], in assay [9], in assay [10], in [5], in assay [7] and in [8] was above 100 µM in each case.
Consider `CCCCCCc1ccc(CCCCCCCC(=O)O)o1`, for which the TGI in [1], in assay [2], in [9], in assay [10], in [4] and in assay [6] was above 100 µM in each case. Further, the TGI in [7] and in [8] was above 100 µM throughout.
For the compound `CC(C)OC1=C(CC2(C)OCCO2)C(=O)C12OCCO2`, the TGI in [1], in assay [2], in assay [9], in assay [10], in [3] and in [5] was above 100 µM each time. Further, the TGI in assay [6], in assay [7] and in assay [8] was above 100 µM each time.
As to `Cc1ccc2sc3c(NCCCN)nc4ccccc4c3c(=O)c2c1`, the GI50 in [1] was 16.5 µM; in assay [2], 2.32 µM; in assay [9], 1.44 µM; in assay [3], 1.7 µM; in assay [6], 1.8 µM; in assay [7] it was 2.41 µM. The GI50 in assay [8] was 1.76 µM. Moreover, the TGI in assay [1] came to 37.4 µM; in assay [2] it was 5.61 µM; in assay [9], 4.65 µM; in assay [3] it was 3.3 µM; in assay [6], 3.45 µM; in assay [7] it was 5.91 µM. Further, in [8], the TGI came to 3.21 µM.
With `Oc1ccc(-c2nc3cc(C(F)(F)F)ccc3s2)cc1`, the TGI was 28.5 µM in [1]; 27.8 µM in [2]; 35.9 µM in [10]; 31 µM in assay [3]; 32.7 µM in assay [4]; 25.7 µM in assay [5]. Further, the TGI worked out at 35.5 µM in assay [6], 29.4 µM in assay [7] and 34.2 µM in [8].
Regarding `N#Cc1c(/C=C/c2ccccc2)c2c([nH]c1=S)CCCCC2`, the TGI in assay [2], in assay [9], in [10], in assay [3], in [4] and in assay [5] was above 100 µM each time. Moreover, the TGI in [6], in assay [7] and in assay [8] was above 100 µM in each case.
With `Cc1cc(C)[n+]2c(c1)C=CC2`, the TGI is above 100 µM in assay [9]; above 100 µM in assay [10]; 49.5 µM in [5]; above 100 µM in assay [7]; 79.4 µM in [8].
Consider `COc1cc(C(c2ccccc2)N2C(=O)CC[C@H]2C(=O)O)cc(OC)c1OC` (stereo not given in full), for which the TGI in assay [1], in [2], in assay [9], in assay [10], in assay [4] and in [5] was above 100 µM in each case. Moreover, the TGI in assay [6], in [7] and in assay [8] was above 100 µM throughout.
Regarding `CCOP(=O)(OCC)C(Nc1ccc(Cl)cc1)c1ccc(F)cc1` (stereo not given), the TGI in [2] was determined as 93.1 µM; in [9] it was 59.1 µM; in assay [10] it was 62.9 µM; in assay [3] it was 74.6 µM; in assay [4], 43.1 µM; in [5], 49.7 µM. In addition, the values for the TGI in assay [6], in assay [7] and in assay [8] were 87.3 µM, above 100 µM and 49 µM, respectively.
On to `COc1cc2nc(-c3cccs3)nc(N3CCN(c4ccccc4)CC3)c2cc1OC`, for which the TGI in assay [1], in assay [9], in [10], in assay [3], in assay [5] and in assay [6] was above 100 µM in each case. The TGI in assay [7] and in assay [8] was above 100 µM each time.
Regarding `C=C(C)C1(Sc2ccc(OC)cc2)CC1`, the TGI in assay [1] was 58 µM; in assay [2], above 100 µM; in assay [10], 61.8 µM; in assay [3] it was above 100 µM; in [4], above 100 µM; in assay [6] it was above 100 µM. Moreover, the TGI in assay [7] and in [8] was above 100 µM in each case.
As for `CN(C)C(=O)N1N[C@H](c2ccccc2)[C@@H]1c1ccccc1`, the TGI in assay [2], in assay [9], in assay [3], in assay [4], in assay [5] and in [6] was above 100 µM in each case. The TGI in assay [7] and in assay [8] was above 100 µM each time.
Consider `C1=CC2C(C3CN(c4ccccc4)N=C13)C1C3C4C=CC21C=CC43` (stereo not given), for which the TGI in assay [1], in [2], in [9], in assay [10], in assay [3] and in [5] was above 100 µM throughout. Moreover, the TGI in [6], in assay [7] and in [8] was above 100 µM in each case.
On to `COc1cc(C2c3cccc4cccc(c34)C3CCC(=O)N32)cc(OC)c1O` (stereo not given), for which the TGI in assay [1], in [2], in assay [9], in assay [10], in assay [4] and in [6] was above 50 µM each time. Besides, the TGI in assay [7] and in [8] was above 50 µM throughout.
Turning to `O=C1Sc2ccccc2C(=O)N2CCSC12` (stereo not given), the TGI in assay [2], in [9] and in assay [7] was above 100 µM throughout.
As for `CC(C)(C)OC(=O)N1C(=O)C2CCCC21` (stereo not given), the TGI in [1], in assay [2], in [9], in assay [10], in assay [3] and in assay [6] was above 100 µM in each case. Moreover, in assay [7], the TGI is above 100 µM.
Take `Cc1ccc(C)n1-c1ccccc1C1C=Cn2c(=O)oc3c(OC(C)C)c(OC(C)C)c(O)c1c32` (stereo not given): the TGI is above 100 µM in [1]; above 100 µM in assay [2]; above 100 µM in assay [9]; above 100 µM in assay [10]; 78.8 µM in [3]; 75.5 µM in [5]. The TGI in assay [6], in assay [7] and in assay [8] was above 100 µM each time.
